What all share (type): cell-based
Assay [1] relates to Alexa Fluor647 labelled human IgE. Put plainly: Uptake assay: internalization of Alexa Fluor 647 labelled IgE in wild type HepG2 cells (Example 6). As to conditions: equimolar conjugate and AF647 IgE, 2 hours, median cellular AF647 intensity by flow cytometry, normalized to unconjugated parent protein. How it is done: (§1) The following experiments were performed with HepG2 hepatocellular carcinoma cells, grown in Eagle's Minimal Essential Media (EMEM) supplemented with 10% FBS and penicillin/streptomycin.
(§2) HepG2 cells (25,000) were plated in 96-well plates 48 hours before the experiment was performed. On the day of the experiment, indicated the conjugate was mixed with an equimolar stock of Alexa Fluor647 labelled human IgE (Enzo Life Sciences, BPD-DIA-HE 1) in fresh EMEM as a 600 nM stock. The precomplexed conjugate:IgE mixture was incubated at room temperature for 30 minutes. During the precomplexing step, media from HepG2 was removed, and 40 ul of EMEM with 1/100 Fc Receptor Blocking Solution (Biolegend Human TruStain FcX, 422302) was added. Cells incubated in the receptor blocking solution for 10 minutes while making serial dilutions (1:3) of conjugate:IgE stock solution in EMEM. 40 ul of the conjugate:IgE mixture in EMEM was then added to cells (six dilutions, with final concentrations ranging from 300 nM to 1.23 nM) for 2 hours before washing with DPBS and detaching with 0.25% Trypsin/EDTA. Cells were pelleted in 96-well conical bottom plates, washed once with FACS Buffer with BSA (Rockland Immunochemicals), and resuspended in FACS Buffer with BSA. Uptake of fluorescently labelled IgE was measured by analyzing median cellular AF647 intensity by flow cytometry.
(§3) Cells were incubated with equimolar ratio of conjugate and AF647 IgE at indicated concentrations, with data normalized to unconjugated parent protein (Oma S35HWY57H-LC).

For assay [2] the test system is unchanged. Put plainly: Uptake assay: internalization of Alexa Fluor 647 labelled IgE in ASGPR1/2 KO HepG2 cells (Example 6). The following applies: equimolar conjugate and AF647 IgE, normalized to unconjugated parent protein. How it is done:
as §1, §2, §3

In assay [3] the test system is LysoLight-labelled human IgE. Put plainly: Lysosomal degradation of LysoLight-labelled IgE in HepG2 cells, live cell imaging (Example 7). The following applies: equimolar conjugate:LysoLight IgE, area under the curve of deep red fluorescence over three days, normalized to unconjugated parent protein. How it is done: as §1
HepG2 cells (15,000) were plated in 96-well plates 72 hours before performing the experiment. On the day of the experiment, indicated the conjugate was diluted in fresh EMEM and mixed with an equimolar stock of LysoLight-labelled human IgE (Enzo Life Sciences, BPD-DIA-HE1), at 200 nM of each compound. The precomplexed conjugate:IgE mixture was incubated at room temperature for 30 minutes. During the precomplexing step, media from HepG2 was removed, and 40 ul of EMEM with 1/100 Fc Receptor Blocking Solution (Biolegend Human TruStain FcX, 422302) was added. Cells incubated in the receptor blocking solution for 10 minutes while making serial dilutions (1:3) of conjugate:IgE stock solution in EMEM. 40 ul of the conjugate:IgE mixture in EMEM was then added to cells (five dilutions, with final concentrations ranging from 100 nM to 1.23 nM). Cells were placed in an IncuCyte Live-Cell Analysis System (Sartorius) for long term live cell imaging analysis (10× magnification, 3 images per well). One hour after addition of compound, image acquisition to measure red fluorescence from the LysoLight probe was started, with further Images collected every hour for 72 hours. Fluorescence of the LysoLight probe only occurs when cleaved by lysosomal cathepsin proteases, confirming lysosomal delivery and degradation of target. After 72 hours, mean red fluorescence was measured for each time point, and the area under the curve of fluorescence overtime was used to measure total degradation over the 3-day time period.

The test system of the next assay is HepG2 cells. Put plainly: Externalization of conjugates from a cell following internalization (cycling), high-throughput format (Example 11). The following applies: 50 nM conjugate 1 hour, stringent washes, Alexa Fluor 647-labelled a-human IgG 1 hour, FACS, normalized to unconjugated parent protein, average of two replicate wells. As to the method: as §1
The method was also adapted to a high-throughput format. In this assay, 25,000 HepG2 cells were plated in 96-well plates 48 hours before performing the experiment. The day of the experiment, cells were incubated with conjugate at indicated concentrations for 1 hour. Cells were then placed on ice to prevent trafficking/recycling during wash steps, and washed once with DPBS, once with sodium acetate buffer (20 mM, 150 mM NaCl, pH 5.2), once with Earle's Balanced Salt Solution (EBSS) adjusted to pH 2.5, and once again with DPBS, to remove conjugate from media and cell surface. Afterwards, 100 ul of prewarmed (to 37° C.) EMEM with 1 μg/ml of human a-IgG antibody conjugated to Alexa Fluor647 fluorophores was added to cells for 1 hour before washing with DPBS and detaching with 0.25% Trypsin/EDTA. Cells were pelleted in 96-well conical bottom plates, washed once with FACS Buffer with BSA (Rockland Immunochemicals), resuspended FACS Buffer with BSA and median AF647 intensity was analyzed by flow cytometry. The amount of conjugate capable of cycling to the cell surface (being externalized from the cell) and binding to the Alexa Fluor647 labelled α-IgG was measured by analyzing median cellular 647 fluorescence intensity by flow cytometry. […]. Reported values are the average of the values of two replicate wells.

For another assay, the system named is human IgE. Put plainly: Degradation of initial and subsequent dose of target in HepG2 cells (Example 12, Table 30). The following applies: normalized to unconjugated; for Normalized Fluorescence Post Wash Median Green: after wash, probe-conjugated IgE added for 4 hours, subsequent dose of target; for Normalized Fluorescence Precomplex Median Deep Red: precomplexed equimolar conjugate:IgE (cathepsin-cleavable quenched fluorescent probe) added for 2 hours, initial dose of target. As to the method: as §1
HepG2 cells (25,000) were plated in 96-well plates 48 hours before performing the experiment. On the day of the experiment, indicated conjugate was diluted in fresh EMEM as a 2× stock, and mixed with an equimolar stock of human IgE (Enzo Life Sciences, BPD-DIA-HE 1) conjugated to a cathepsin-cleavable quenched fluorescent probe. The precomplexed conjugate:IgE mixture was incubated at 37 degrees Celsius for 30 minutes. Media from HepG2 was removed, and conjugate:IgE mixture in EMEM was added to cells for 2 hours. Cells were then placed on ice to prevent trafficking/recycling during wash steps, and washed once with DPBS, once with sodium acetate buffer (20 mM, 150 mM NaCl, pH 5.2), once with Earle's Balanced Salt Solution (EBSS) adjusted to pH 2.5, and once again with DPBS, to remove conjugate from media and cell surface. Afterwards, 100 ul of prewarmed (to 37 degrees Celsius) EMEM with cathepsin-cleavable quenched fluorescent probe-conjugated IgE was added to cells for 4 hours before washing with DPBS and detaching with 0.25% Trypsin/EDTA. Cells were pelleted in 96-well conical bottom plates, washed once with FACS Buffer with BSA (Rockland Immunochemicals), resuspended FACS Buffer with BSA and median 488 and 647 intensity was analyzed by flow cytometry. Delivery of labelled IgE to the lysosome and subsequent cleavage of initial precomplexed IgE was measured by analyzing median cellular 647 intensity, while cleavage of the post wash addition of IgE, which should only be degraded by recycling conjugates which released the first round of precomplexed IgE, was analyzed by median cellular 488 intensity. HepG2 cells were treated with human IgE (Enzo Life Sciences, BPD-DIA-HE1) conjugated to a cathepsin-cleavable quenched deep red (647) fluorescent probe precomplexed to conjugate fortwo hours, then washed, and fresh media with IgE conjugated to a green (488) cathepsin-cleavable fluorescent probe was then added without conjugate. […] Fluorescence values were measured by FACS and normalized to unconjugated parent protein. Reported values are the average of the values of two replicate wells.

In the next assay the test system is recombinant IgE. Put plainly: Degradation of super-stoichiometric levels of target in HepG2 cells (Example 13, Table 31). As to conditions: 1 nM conjugate and 25 nM IgE for three days, (A-B)/C IgE depleted relative to conjugate, average of two replicate wells. How it is done:
as §1
For evaluation of compounds in a high throughput format, 25,000 HepG2 cells were plated in a 96-well plate. The following day, 50 ul of 1 nM conjugate and 25 nM recombinant IgE in EMEM were added to the cells. 50 ul of the initial stock of conjugate:IgE was saved to quantify for an initial time point. Three days later, the media was collected from cells, and both initial and 72 hour time points were quantified for IgE concentration using the MSD assay.
HepG2 cells were incubated in media containing 1 nM conjugate and 25 nM IgE for three days. Concentrations of IgE at beginning and end of experiment were quantified by ELISA-based assay. Molar equivalents of IgE depleted relative to conjugate added are shown, calculated as (A-B)/C, where A is the initial concentration of IgE, B is the concentration of IgE at day three, and C is the concentration of conjugate. Reported values are the average of the values of two replicate wells.

The structures appear in SMILES notation.

As for `O=C(CCOCCOCCOCCNS(=O)(=O)c1ccc(N2C(=O)C=CC2=O)cc1)NC(CCCNC(=O)NCCOCCOCCCc1cncc(N[C@H]2CO[C@H](CO)[C@H](O)[C@@H]2O)n1)(CCCNC(=O)NCCOCCOCCCc1cncc(N[C@H]2CO[C@H](CO)[C@H](O)[C@@H]2O)n1)CCCNC(=O)NCCOCCOCCCc1cncc(N[C@H]2CO[C@H](CO)[C@H](O)[C@@H]2O)n1` [Compound 2303], in assay [1], the “Normalized Fluorescence 3.7 nM WT” value stood at 70.6 and the “Normalized Fluorescence 100 nM WT” value is 232.7. In assay [2], the “Normalized Fluorescence 100 nM ASGPR KO” value is listed as 1.1. Also, in assay [3], the “Normalized Fluorescence 3.7 nM” value turned out to be 10.2 and the “Normalized Fluorescence 100 nM” value is given as 3.7. Also, the “Normalized Fluorescence” value in the assay on HepG2 cells was 52.7. In the assay with human IgE, the “Normalized Fluorescence Post Wash Median Green” value came to 3.6 and the “Normalized Fluorescence Precomplex Median Deep Red” value came to 3.4. Besides, the “Average Degradation (Molar equivalents)” value with recombinant IgE is 3.6 Molar equivalents.

Consider `CC(CCCNC(=O)NCCOCCOCCOCC(F)(F)c1cncc(N[C@H]2CO[C@H](CO)[C@H](O)[C@@H]2O)n1)(CCCNC(=O)NCCOCCOCCOCC(F)(F)c1cncc(N[C@H]2CO[C@H](CO)[C@H](O)[C@@H]2O)n1)NC(=O)CCOCCOCCOCCNS(=O)(=O)c1ccc(N2C(=O)C=CC2=O)cc1` [Compound 2304], for which, in assay [1], the “Normalized Fluorescence 3.7 nM WT” value amounted to 150.3 and the “Normalized Fluorescence 100 nM WT” value worked out at 292.5. The “Normalized Fluorescence 100 nM ASGPR KO” value in assay [2] is recorded as 1.0. Besides, in assay [3], the “Normalized Fluorescence 3.7 nM” value is 12.7 and the “Normalized Fluorescence 100 nM” value came out at 4.0. In the assay on HepG2 cells, the “Normalized Fluorescence” value is on record as 82.2. For the same molecule, in the assay with human IgE, the “Normalized Fluorescence Post Wash Median Green” value was found to be 4.1 and the “Normalized Fluorescence Precomplex Median Deep Red” value came out at 3.9. In addition, the “Average Degradation (Molar equivalents)” value in the assay with recombinant IgE is listed as 8.8 Molar equivalents.

Consider `O=C(CCOCCOCCOCCNS(=O)(=O)c1ccc(N2C(=O)C=CC2=O)cc1)NC(CCCNC(=O)NCCOCCOCCOC[C@@H]1CN([C@H]2CO[C@H](CO)[C@H](O)[C@@H]2O)C(=O)O1)(CCCNC(=O)NCCOCCOCCOC[C@@H]1CN([C@H]2CO[C@H](CO)[C@H](O)[C@@H]2O)C(=O)O1)CCCNC(=O)NCCOCCOCCOC[C@@H]1CN([C@H]2CO[C@H](CO)[C@H](O)[C@@H]2O)C(=O)O1` [Compound 2306], for which, in assay [1], the “Normalized Fluorescence 3.7 nM WT” value was determined as 31.0 and the “Normalized Fluorescence 100 nM WT” value was 164.6. For the same molecule, the “Normalized Fluorescence 100 nM ASGPR KO” value in assay [2] is 1.1. In addition, in assay [3], the “Normalized Fluorescence 3.7 nM” value was determined as 5.6 and the “Normalized Fluorescence 100 nM” value stood at 1.8. In addition, in the assay with HepG2 cells, the “Normalized Fluorescence” value is recorded as 23.1. Also, in the assay on human IgE, the “Normalized Fluorescence Post Wash Median Green” value amounted to 2.4 and the “Normalized Fluorescence Precomplex Median Deep Red” value turned out to be 2.5. The “Average Degradation (Molar equivalents)” value with recombinant IgE is recorded as 1.8 Molar equivalents.

`CC(=O)N[C@@H]1[C@@H](O)[C@@H](O)[C@@H](CO)O[C@@H]1CCCOCCOCCNC(=O)NCCCC(CCCNC(=O)NCCOCCOCCC[C@H]1O[C@H](CO)[C@H](O)[C@H](O)[C@H]1NC(C)=O)(CCCNC(=O)NCCOCCOCCC[C@H]1O[C@H](CO)[C@H](O)[C@H](O)[C@H]1NC(C)=O)NC(=O)COCCOCCOCCOCCN(C(=O)CBr)C1CCOCC1` [Compound 2307, N-[4-[2-[2-[3-[(2R,3R,4R,5R,6R)-3-acetamido-4,5-dihydroxy-6-(hydroxymethyl)tetrahydropyran-2-yl]propoxy]ethoxy]ethylcarbamoylamino]-1,1-bis[3-[2-[2-[3-[(2R,3R,4R,5R,6R)-3-acetamido-4,5-dihydroxy-6-(hydroxymethyl)tetrahydropyran-2-yl]propoxy]ethoxy]ethylcarbamoylamino]propyl]butyl]-2-[2-[2-[2-[2-[(2-bromoacetyl)-tetrahydropyran-4-yl-amino]ethoxy]ethoxy]ethoxy]ethoxy]acetamide]: in assay [1], the “Normalized Fluorescence 3.7 nM WT” value turned out to be 81.6 and the “Normalized Fluorescence 100 nM WT” value is reported as 253.2. Moreover, the “Normalized Fluorescence 100 nM ASGPR KO” value in assay [2] is 1.2. Further, in assay [3], the “Normalized Fluorescence 3.7 nM” value stood at 7.9 and the “Normalized Fluorescence 100 nM” value is 4.1. For the same molecule, the “Normalized Fluorescence” value in the assay with HepG2 cells turned out to be 42.9. Further, in the assay with human IgE, the “Normalized Fluorescence Post Wash Median Green” value stood at 3.5 and the “Normalized Fluorescence Precomplex Median Deep Red” value was 3.7. Moreover, in the assay with recombinant IgE, the “Average Degradation (Molar equivalents)” value was found to be 5.6 Molar equivalents.

The values are drawn from patent US20260224714A1, “CYCLING LYSOSOMAL TARGETING ANTIBODY CONJUGATES” (Lycia Therapeutics, Inc., priority 2023, published 2026).
